Here are results for one sequence from patent US8722052B2, “Vaccinia virus protein A46 peptide and use thereof” (priority 2008, dated 2014).

This assay has as its system TLR4. Briefly: LPS-induced NFκB reporter assay in HEK293_TLR4 cells. Format: cell-based, human. The note with it: peptide 5 or 25 μM added 2 or 9 hours after 10 ng/ml LPS. As for the experimental part: FIGS. 20A and B are bar charts showing the effect of shortened A464 peptides with deletions of N- and C-terminal amino acids on TLR4- and TLR3-induced NFκB activation in HEK293 cells. HEK293_TLR4 (A) and HEK293_TLR3 (B) cells were seeded in 96 well plates (1.5×10^5 cells/ml) 24 hours before transfection with the plasmid DNA. Cells were transfected with 60 ng NFκB-Luciferase and 20 ng of TK-Renilla reporter genes, as in FIG. 11. A464N-2 (SEQ ID NO. 41) and A464C-3 (SEQ ID NO. 42) peptides were added to the cells at a concentration of 1, 5 or 25 μM the next day and cells were stimulated with either 10 ng/ml LPS (A) or 25 μg/ml Poly(I:C) (B) 1 hour after treatment with peptides. Cells were harvested and assayed for NFκB activation by reporter gene assay 6 hours after stimulation with the agonists. No peptides were added to the control wells (black bars). Data is representative of three experiments each performed in triplicate and is expressed as mean fold induction±s.d. relative to control levels;
FIGS. 24A and B are bar charts showing the effect of A464 on ligand-independent TLR4 signalling in HEK293 cells. HEK293_TLR4 cells were seeded in 96 well plate (1.5×10^5 cells/ml) 24 hours before transfection with NFκB-luciferase and TK-Renilla reporter gene plasmids. NFκB activation was stimulated by transfecting either 50 or 100 ng of CD4/TLR4-encoding plasmid or by stimulating with 10 ng/ml LPS. The total amount of plasmid DNA transfected into the cells was made up to 230ng by adding pcDNA. A464 (SEQ ID NO. 20) was added to the cells at a concentration of 5 or 25 μM 2 hours (A) or 9 hours (B) after the transfection or LPS-stimulation. Cells were harvested and assayed for NFκB activation by reporter gene assay 24 hours post-transfection. No peptides were added to the control wells (black bars). Data is representative of two experiments, each performed in triplicate and is expressed as mean fold induction±s.d. relative to control levels;
HEK293 cells were transfected using GeneJuice® a proprietary non-toxic transfection reagent. […]
(In general: Reporter assays use an easily measured gene product as a stand-in for the process of interest.)

Sequence of TLR4 (O00206 24-839): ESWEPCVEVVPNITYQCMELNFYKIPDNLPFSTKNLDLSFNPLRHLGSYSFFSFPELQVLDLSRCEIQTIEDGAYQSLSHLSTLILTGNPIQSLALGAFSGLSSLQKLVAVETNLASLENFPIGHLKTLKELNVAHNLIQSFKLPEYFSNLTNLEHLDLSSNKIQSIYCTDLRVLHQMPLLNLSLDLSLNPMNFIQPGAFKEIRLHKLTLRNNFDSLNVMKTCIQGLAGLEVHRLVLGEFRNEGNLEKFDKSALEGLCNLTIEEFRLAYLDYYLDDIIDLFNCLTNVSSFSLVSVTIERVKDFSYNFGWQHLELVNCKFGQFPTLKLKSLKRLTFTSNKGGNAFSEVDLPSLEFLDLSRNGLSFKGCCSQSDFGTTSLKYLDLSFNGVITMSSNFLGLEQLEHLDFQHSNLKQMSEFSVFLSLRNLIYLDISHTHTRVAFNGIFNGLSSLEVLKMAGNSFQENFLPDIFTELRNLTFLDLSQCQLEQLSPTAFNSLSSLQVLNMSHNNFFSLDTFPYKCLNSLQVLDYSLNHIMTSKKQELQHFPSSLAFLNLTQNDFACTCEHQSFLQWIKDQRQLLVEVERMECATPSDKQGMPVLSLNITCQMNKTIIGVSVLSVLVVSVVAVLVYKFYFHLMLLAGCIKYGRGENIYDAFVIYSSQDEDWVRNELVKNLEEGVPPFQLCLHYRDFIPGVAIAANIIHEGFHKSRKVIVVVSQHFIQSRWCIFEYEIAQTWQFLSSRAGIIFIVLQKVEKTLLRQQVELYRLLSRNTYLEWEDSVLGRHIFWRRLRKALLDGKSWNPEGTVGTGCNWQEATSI
Sequence of TLR4 (Q9Y6Y9 17-160 partner limits assumed): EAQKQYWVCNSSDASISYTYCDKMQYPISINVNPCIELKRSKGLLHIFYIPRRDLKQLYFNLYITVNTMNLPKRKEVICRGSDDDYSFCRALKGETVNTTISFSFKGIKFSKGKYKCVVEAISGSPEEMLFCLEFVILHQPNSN

As to KYSFKLILAEYRRRRRRRRR [Peptide A464], the “inhibition of LPS-induced NFκB activation” value is reported as “capable of inhibiting LPS-induced NFκB activation”.
